Source: US7098228B2, “Indolyl derivatives” (Hoffmann-La Roche Inc., priority 2002, dated 2006)

Legend:
PPARγ [1] = molecular target: T1, PPARγ (Mus musculus, UniProt P37238); experiment: Luciferase transcriptional reporter gene assay, pFA-PPARγ-LBD in BHK21 cells; format: cell-based
T1 sequence (P37238 204-505): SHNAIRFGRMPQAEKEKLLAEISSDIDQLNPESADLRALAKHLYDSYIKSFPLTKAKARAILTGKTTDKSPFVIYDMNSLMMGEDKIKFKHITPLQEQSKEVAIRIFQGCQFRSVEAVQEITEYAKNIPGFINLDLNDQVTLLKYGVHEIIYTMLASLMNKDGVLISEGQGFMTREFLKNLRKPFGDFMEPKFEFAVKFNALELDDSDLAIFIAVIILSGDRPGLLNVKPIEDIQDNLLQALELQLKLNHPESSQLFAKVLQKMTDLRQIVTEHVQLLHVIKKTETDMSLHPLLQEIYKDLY
From the text: (§1) Full-length cDNA clones for human PPARα and mouse PPARγ were obtained by RT-PCR from human adipose and mouse liver cRNA, respectively, cloned into plasmid vectors and verified by DNA sequencing. […] To accomplish this, the portions of the cloned sequences encoding the LBDs were amplified from the full-length clones by PCR and then subcloned into the plasmid vectors. Final clones were verified by DNA sequence analysis.
(§2) Luciferase Transcriptional Reporter Gene Assays
(§3) Baby hamster kidney cells (BHK21 ATCC CCL10) were grown in DMEM medium containing 10% FBS at 37° C. in a 95% O2:5% CO2 atmosphere. Cells were seeded in 6 well plates at a density of 10^5 Cells/well and then batch-transfected with either the pFA-PPARγ-LBD or pFA-PPARα-LBD expression plasmids plus the pFR-luc reporter plasmid and an expression plasmid encoding the secretable form of alkaline phosphatase (SEAP) as a normalization control. […] Six hours following transfection, the cells were harvested by trypsinization and seeded in 96 well plates at a density of 10^4 cells/well. After 24 hours to allow attachment of cells, the medium was removed and replaced with 100 ul of phenol red-free medium containing the test substances or control ligands (final. 0.1% DMSO). Following incubation of the cells for 24 hours with substances, 50 ul of the supernatant was recovered and analyzed for SEAP activity (Roche Molecular Biochemicals). The remainder of the supernatant was discarded, 50 ul PBS was added per well followed by one volume of Luciferase Constant-Light Reagent (Roche Molecular Biochemicals) to lyse the cells and initiate the luciferase reaction. Luminescence for both SEAP and luciferase was measured in a Packard TopCount. Luciferase activity was normalized to the SEAP control and transcriptional activation in the presence of a test substance was expressed as fold-activation over cells incubated in the absence of the substance. EC50 values were calculated using the XLfit program (ID Business Solutions Ltd. UK).

PPARα = molecular target: T2, PPARα (Homo sapiens, UniProt Q07869); experiment: Luciferase transcriptional reporter gene assay, pFA-PPARα-LBD in BHK21 cells; format: cell-based
T2 construct: PPARα (aa 167 to 469); expressed in transfected cells; host or cells: BHK21 (ATCC CCL10)
T2 sequence (Q07869 167-468 limits assumed): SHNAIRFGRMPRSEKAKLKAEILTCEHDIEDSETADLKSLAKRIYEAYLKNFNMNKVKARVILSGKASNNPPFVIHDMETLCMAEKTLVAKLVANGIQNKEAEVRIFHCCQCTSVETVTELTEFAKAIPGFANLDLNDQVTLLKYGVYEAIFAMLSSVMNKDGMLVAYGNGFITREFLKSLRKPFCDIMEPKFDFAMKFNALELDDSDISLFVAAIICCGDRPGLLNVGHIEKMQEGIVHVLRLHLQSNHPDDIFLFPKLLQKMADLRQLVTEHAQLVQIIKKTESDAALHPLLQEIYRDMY
From the text: as §1, §2, §3

PPARγ [2] = molecular target: T1, PPARγ; experiment: PPARγ radioligand binding assay (scintillation proximity, GST-PPARγ-LBD); design: made in house; host or cells: E. coli BL21 (pLysS)
From the text: as §1
Induction, expression, and purification of GST-LBD fusion proteins were performed in E. coli strain BL21 (pLysS) cells by standard methods (Ref: Current Protocols in Molecular Biology, Wiley Press, edited by Ausubel et al.).
Radioligand Binding Assay
PPARγ receptor binding was assayed in TKE50 (50 mM Tris-HCl, pH 8, 50 mM KCl, 2 mM EDTA, 0.1 mg/ml fatty acid-free BSA and 10 mM DTT). For each 96 well reaction an 140 ng equivalent of GST-PPARγ-LBD fusion protein was bound to 10 ug SPA beads (PharmaciaAmersham) in a final volume of 50 ul by shaking. The resulting slurry was incubated for 1 h at RT and centrifuged for 2 min at 1300 g. The supernatant containing unbound protein was removed and the semidry pellet containig the recptor-coated beads was resolved in 50 ul of TKE. For radioligand binding e.g. 10000 dpm 2(S)-(2-benzoyl-phenylamino)-3-{4-[1,1-ditritio-2-(5-methyl-2-phenyl-oxazol-4-yl) -ethoxy]-phenyl}-propionic acid in 50 ul were added, the reaction incubated at RT for 1 h and scintillation proximity counting performed. All binding assays were performed in 96 well plates and the amount of bound ligand measured on a Packard TopCount using OptiPlates (Packard). Nonspecific binding was determined in the presence of 10^−4 M unlabelled compound. Dose response curves were done in triplicates within a range of concentration from 10^−10 M to 10^−4 M.

CCOC(Cc1cccc2c1ccn2Cc1nc(-c2ccc(C(C)C)cc2)oc1C)C(=O)O (racemic) [Example 2, rac-2-Ethoxy-3-{1-[2-(4-isopropyl-phenyl)-5-methyl-oxazol-4-ylmethyl]-1H-indol-4-yl}-propionic acid]
EC50 (PPARγ [1]): 93 nM | EC50 (PPARα): 200 nM | IC50 (PPARγ [2]): 53 nM

CCOC(Cc1cccc2c1ccn2Cc1nc(-c2ccc(C(F)(F)F)cc2)oc1C)C(=O)O (racemic) [Example 10, rac-2-Ethoxy-3-{1-[5-methyl-2-(4-trifluoromethyl-phenyl)-oxazol-4-ylmethyl]-1H-indol-4-yl}-propionic acid]
EC50 (PPARγ [1]): 140 nM | EC50 (PPARα): 44 nM | IC50 (PPARγ [2]): 1400 nM

CCOC(Cc1cccc2c1ccn2Cc1nc(-c2cc(OC)cc(OC)c2)oc1C)C(=O)O (racemic) [Example 1, rac-3-{1-[2-(3,5-Dimethoxy-phenyl)-5-methyl-oxazol-4-ylmethyl]-1H-indol-4-yl}-2-ethoxy-propionic acid]
EC50 (PPARγ [1]): 7 nM | EC50 (PPARα): 8 nM | IC50 (PPARγ [2]): 68 nM

CCOC(Cc1cccc2c1ccn2CCCc1nc(-c2ccccc2)oc1C)C(=O)O (racemic) [Example 3, rac-2-Ethoxy-3-{1-[3-(5-methyl-2-phenyl-oxazol-4-yl)-propyl]-1H-indol-4-yl}-propionic acid]
EC50 (PPARα): 190 nM
